The record followed here is ChEMBL document CHEMBL1147822, “One-pot synthesis and SAR study of cis-2,6-dialkyl-4-chloro-tetrahydropyrans” (2006).

Where only a bound is given, the exact number is not on record here.

What all share (assay type): functional
One assay deals with SW1573. Briefly: Antiproliferative activity against human SW1573 cells. Particulars: for CC50: read-out: LC50 (the source's name).
The next assay has as its system A2780. Briefly: Antiproliferative activity against human A2780 cells. Particulars: for CC50: read-out: LC50 (the source's name).
A further assay concerns WiDr. Briefly: Antiproliferative activity against human WiDr cells.

Usually GI50 stands for the concentration giving 50% growth inhibition. Low values mean more potent growth inhibition, high ones less potent growth inhibition. The term TGI denotes the concentration giving total growth inhibition. Take `COc1ccc([C@@H]2C[C@H](Cl)C[C@H](CC(C)C)O2)cc1`: in the assay on SW1573, the GI50 came to 30 µM and the concentration for total growth inhibition (TGI) came out at 80 µM. Besides, in the assay with A2780, the GI50 is 25 µM, net growth stopped (TGI) at 57 µM and the CC50 came to 95 µM. In addition, in the assay with WiDr, growth was halved (GI50) at 36 µM; the LC50 (lethal concentration, 50% net cell kill) is 95 µM; net growth stopped (TGI) at 73 µM.
For the molecule `CC(C)C[C@H]1C[C@@H](Cl)C[C@@H](C2CCCCC2)O1`, in the assay with SW1573, the 50% growth inhibitory concentration (GI50) stood at 22 µM, the TGI was 43 µM and the CC50 worked out at 82 µM. In the assay on A2780, the GI50 is 20 µM, the TGI amounted to 38 µM and the CC50 amounted to 73 µM. Besides, in the assay with WiDr, growth was halved (GI50) at 26 µM and the TGI is 63 µM.
As for `CC(C)C[C@H]1C[C@@H](Cl)C[C@@H](c2ccccc2)O1`, the GI50 in the assay with SW1573 was 24 µM; in the assay on A2780, 17 µM; with WiDr, 39 µM. For the same molecule, the values for the TGI with SW1573, with A2780 and in the assay on WiDr were 48 µM, 35 µM and 88 µM, respectively. The values for the CC50 in the assay on SW1573 and in the assay with A2780 were 90 µM and 72 µM, respectively.
On to `O=[N+]([O-])c1ccc([C@H]2C[C@@H](Cl)CCO2)cc1`, for which the GI50 in the assay with SW1573, in the assay on A2780 and in the assay on WiDr was > 100 µM in each case.
With `CC(C)C[C@H]1C[C@@H](Cl)C[C@@H](C)O1`, the GI50 with SW1573, in the assay on A2780 and with WiDr was > 100 µM throughout.
In the case of `CC(C)C[C@@H]1C[C@H](Cl)C[C@H](CC(C)C)O1`, the GI50 is 67 µM in the assay on SW1573, 63 µM in the assay with A2780 and > 100 µM in the assay with WiDr. Further, the TGI with SW1573 worked out at 89 µM; in the assay on A2780 it was 90 µM.
Turning to `Cl[C@H]1CCO[C@@H](c2ccccc2)C1`, the concentration for 50% growth inhibition (GI50) in the assay with SW1573, in the assay with A2780 and in the assay with WiDr was > 100 µM throughout.
Turning to `CC(C)C[C@H]1C[C@@H](Cl)CCO1`, the GI50 in the assay on SW1573, with A2780 and in the assay on WiDr was > 100 µM each time.
Regarding `CC(C)C[C@H]1C[C@@H](Cl)C[C@@H](c2ccc([N+](=O)[O-])cc2)O1`, the GI50 amounted to 30 µM in the assay on SW1573, 21 µM in the assay on A2780 and 38 µM with WiDr. The TGI with A2780 was 64 µM.
